Reference: patent publication US20250115597A1, “TYK2 INHIBITORS AND COMPOSITIONS AND METHODS THEREOF” (LYNK PHARMACEUTICALS CO. LTD., priority 2021, published 2025)

Target: T1, Ba/F3-FL-TYK2-P760L cells (Homo sapiens, UniProt P29597, P760L, cells depend on it)
T1 construct: BaF3-FL-T2P760L (nM)
Test: Anti-proliferative assay, Ba/F3-FL-TYK2-P760L cells (Cell-Titer Glo)
Type: cell-based
Conditions: 72 h, read-out: BaF3-FL-T2P760L IC50
Method: Anti-Proliferative Assay Dimerization domain of Tel protein fused with JAK kinase domain was permanently transduced into Ba/F3 cells, whose proliferation is dependent on JAK activity in the absence of IL-3 induction. These engineered Ba/F3 cells (Ba/F3-FL-TYK2-[…], Ba/F3-TEL-TYK2 and Ba/F3-TEL-JAK2) were used to monitor JAK inhibitory activities of the compounds in the cellular. […] Cells were seeded at 2000/well of white flat bottom 96-well plates. The well containing medium only was used as background control. After 24 h growth, cells were treated with compounds. The test compounds were dissolved in DMSO to a stock concentration of 20 mM. 3-fold serially diluted compounds for 9 concentrations with top concentration of 20 μM was added into the each well. […] The cells continued to grow at 37° C. in 5% CO2 for 72 h after compound treatment. The viability was measured by cellular ATP determination using the Cell-Titer Glo luciferase reagent (Promega). The Luminescence value was recorded by a multi-label reader Envision (PerkinElmer).

T1 sequence (P29597 whole entry P760L): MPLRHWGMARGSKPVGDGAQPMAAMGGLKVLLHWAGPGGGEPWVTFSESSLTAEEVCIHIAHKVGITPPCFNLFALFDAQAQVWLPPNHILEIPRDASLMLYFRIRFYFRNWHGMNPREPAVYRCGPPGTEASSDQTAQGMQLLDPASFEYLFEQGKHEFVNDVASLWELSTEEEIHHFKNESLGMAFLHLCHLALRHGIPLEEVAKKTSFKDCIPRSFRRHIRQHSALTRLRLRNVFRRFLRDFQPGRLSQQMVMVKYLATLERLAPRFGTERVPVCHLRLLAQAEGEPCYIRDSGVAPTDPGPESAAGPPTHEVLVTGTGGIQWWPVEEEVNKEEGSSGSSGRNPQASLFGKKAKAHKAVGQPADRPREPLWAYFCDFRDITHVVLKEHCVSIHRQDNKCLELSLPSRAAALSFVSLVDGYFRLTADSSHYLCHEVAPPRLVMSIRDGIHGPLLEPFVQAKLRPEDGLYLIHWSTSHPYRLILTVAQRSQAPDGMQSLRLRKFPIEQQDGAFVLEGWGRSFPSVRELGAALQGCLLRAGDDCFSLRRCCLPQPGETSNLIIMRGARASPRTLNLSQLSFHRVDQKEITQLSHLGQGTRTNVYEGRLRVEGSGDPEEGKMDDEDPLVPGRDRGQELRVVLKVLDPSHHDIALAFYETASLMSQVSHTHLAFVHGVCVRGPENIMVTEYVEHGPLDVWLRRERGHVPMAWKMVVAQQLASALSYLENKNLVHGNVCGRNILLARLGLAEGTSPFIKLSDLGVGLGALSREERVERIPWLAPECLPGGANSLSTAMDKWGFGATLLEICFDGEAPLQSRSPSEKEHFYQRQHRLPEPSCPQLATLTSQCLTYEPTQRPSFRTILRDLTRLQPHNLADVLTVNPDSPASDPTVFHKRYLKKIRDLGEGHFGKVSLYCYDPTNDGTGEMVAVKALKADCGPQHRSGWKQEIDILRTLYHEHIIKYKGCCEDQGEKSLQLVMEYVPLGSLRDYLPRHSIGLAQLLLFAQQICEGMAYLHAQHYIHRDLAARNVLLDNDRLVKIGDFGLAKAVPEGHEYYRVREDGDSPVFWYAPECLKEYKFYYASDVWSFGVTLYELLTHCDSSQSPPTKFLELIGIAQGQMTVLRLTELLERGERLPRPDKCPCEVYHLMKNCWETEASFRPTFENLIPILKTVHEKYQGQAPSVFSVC

| GI50 [µM] | Compound |
| --- | --- |
| 0.394 | [2H]C([2H])([2H])NC(=O)c1cnc(NC(=O)C2CC2)cc1Nc1ccc2cnn(C(C)C)c2c1OC([2H])([2H])[2H] [Example 133, 6-(Cyclopropanecarboxamido)-4-((1-isopropyl-7-(methoxy-d3)-1H-indazol-6-yl)amino)-N-(methyl-d3)nicotinamide] |
| 0.832 | [2H]C([2H])([2H])NC(=O)c1cnc(Nc2ccn(C3CC3)n2)nc1Nc1cccc(-c2ncn(C)n2)c1OC [Example 146, 2-((1-Cyclopropyl-1H-pyrazol-3-yl)amino)-4-((2-methoxy-3-(1-methyl-1H-1,2,4-triazol-3-yl)phenyl)amino)-N-(methyl-d3)pyrimidine-5-carboxamide] |
| 0.349 | [2H]C([2H])([2H])NC(=O)c1cnc(NC(=O)C2CC2)cc1Nc1ccc2nnn(CC)c2c1OC [Example 164, 6-(Cyclopropanecarbonylamino)-4-[(3-ethyl-4-methoxy-benzotriazol-5-yl)amino]-N-(trideuteriomethyl)pyridine-3-carboxamide] |
| 1.41 | [2H]C([2H])([2H])NC(=O)c1cnc(Nc2ccn(C)n2)nc1Nc1cccc(-c2ncn(C)n2)c1OC [Example 60, 4-((2-Methoxy-3-(1-methyl-1H-1,2,4-triazol-3-yl)phenyl)amino)-N-(methyl-d3)-2-((1-methyl-1H-pyrazol-3-yl)amino)pyrimidine-5-carboxamide] |
| 0.199 | [2H]C([2H])([2H])NC(=O)c1cnc(Nc2cnn(C3CC3)c2)nc1Nc1cccc(-c2ncn(C)n2)c1OC [Example 2, 2-[(1-Cyclopropylpyrazol-4-yl)amino]-4-[2-methoxy-3-(1-methyl-1,2,4-triazol-3-yl)anilino]-N-(trideuteromethyl)pyrimidine-5-carboxamide] |
| 0.169 | [2H]C([2H])([2H])NC(=O)c1cnc(NC(=O)C2CC2)cc1Nc1cc(F)c2cnn(C([2H])([2H])C([2H])([2H])[2H])c2c1OC [Example 142, 6-(Cyclopropanecarboxamido)-4-((1-(ethyl-d5)-4-fluoro-7-methoxy-1H-indazol-6-yl)amino)-N-(methyl-d3)nicotinamide] |
| 0.0888 | [2H]C([2H])([2H])NC(=O)c1cnc(Nc2ccn(C3CC3)n2)cc1Nc1ccc2cnn(CC)c2c1OC [Example 138, 6-((1-Cyclopropyl-1H-pyrazol-3-yl)amino)-4-((1-ethyl-7-methoxy-1H-indazol-6-yl)amino)-N-(methyl-d3)nicotinamide] |
| 0.0297 | [2H]C([2H])([2H])NC(=O)c1cnc(Nc2ccc(F)cn2)cc1Nc1cn(C)c2c(Cl)cn(CC)c(=O)c12 [Example 160, 4-((7-Chloro-5-ethyl-1-methyl-4-oxo-4,5-dihydro-1H-pyrrolo[3,2-c]pyridin-3-yl)amino)-6-((5-fluoropyridin-2-yl)amino)-N-(methyl-d3)nicotinamide] |
| 0.326 | [2H]C([2H])([2H])NC(=O)c1cnc(Nc2cnn(C)c2)nc1Nc1ccc2cnn(CC)c2c1OC([2H])([2H])[2H] [Example 136, 4-((1-Ethyl-7-(methoxy-d3)-1H-indazol-6-yl)amino)-N-(methyl-d3)-2-((1-methyl-1H-pyrazol-4-yl)amino)pyrimidine-5-carboxamide] |
| 1.35 | CNC(=O)c1cnc(Nc2ccc(F)cn2)nc1Nc1cccc(-c2ncn(C)n2)c1OC [Example 5, 2-((5-Fluoropyridin-2-yl)amino)-4-((2-methoxy-3-(1-methyl-1H-1,2,4-triazol-3-yl)phenyl)amino)-N-methylpyrimidine-5-carboxamide] |

More lines, now with the values behind:

| Compound | GI50 [µM] |
| --- | --- |
| [2H]C([2H])([2H])NC(=O)c1cnc(NC(=O)C2CC2)cc1Nc1cn(C)c2ccn(-c3cc(C)n(C)n3)c(=O)c12 [Example 119, 6-(Cyclopropanecarbonylamino)-4-[[5-(1,5-dimethylpyrazol-3-yl)-1-methyl-4-oxo-pyrrolo[3,2-c]pyridin-3-yl]amino]-N-(methyl-d3)pyridine-3-carboxamide] | 1.51 |
| CNC(=O)c1cnc(Nc2ccc(F)cc2)nc1Nc1cccc(OC2CCOCC2)c1OC [Example 6, 2-((4-Fluorophenyl)amino)-4-((2-methoxy-3-((tetrahydro-2H-pyran-4-yl)oxy)phenyl)amino)-N-methylpyrimidine-5-carboxamide] | 0.897 |
| [2H]C([2H])([2H])NC(=O)c1cnc(NC(=O)C2CC2)cc1Nc1cnn2c1C(=O)N(CC(F)(F)F)CC2 [Example 46, 6-(Cyclopropanecarboxamido)-N-(methyl-d3)-4-((4-oxo-5-(2,2,2-trifluoroethyl)-4,5,6,7-tetrahydropyrazolo[1,5-a]pyrazin-3-yl)amino) nicotinamide] | 0.372 |
| CNC(=O)c1cnc(Nc2ccc(F)cc2)nc1Nc1coc2ccn(C)c(=O)c12 [Example 38, 2-((4-Fluorophenyl)amino)-N-methyl-4-((5-methyl-4-oxo-4,5-dihydrofuro[3,2-c]pyridin-3-yl)amino)pyrimidine-5-carboxamide] | 0.831 |
| [2H]C([2H])([2H])NC(=O)c1cnc(NC(=O)C2CC2)cc1Nc1cn(C)c2ccn(CC=C)c(=O)c12 [Example 109, 4-((5-Allyl-1-methyl-4-oxo-4,5-dihydro-1H-pyrrolo[3,2-c]pyridin-3-yl)amino)-6-(cyclopropanecarboxamido)-N-(methyl-d3)nicotinamide] | 0.147 |
| CNC(=O)c1cnc(NC(=O)C2CC2)cc1Nc1cn(C)c2ncn([C@@H](C)C(F)(F)F)c(=O)c12 (single isomer, unassigned) [Example 234B, (S*)-6-(cyclopropanecarboxamido)-N-(methyl-d3)-4-((7-methyl-4-oxo-3-(1,1,1-trifluoropropan-2-yl)-4,7-dihydro-3H-pyrrolo[2,3-d]pyrimidin-5-yl)amino)nicotinamide] | 0.599 |
| [2H]C([2H])([2H])NC(=O)c1cnc(NC(=O)C2CC2)cc1Nc1csc2cnn(CCOCC)c(=O)c12 [Example 183, 6-(Cyclopropanecarboxamido)-4-((5-(2-ethoxyethyl)-4-oxo-4,5-dihydrothieno[2,3-d]pyridazin-3-yl)amino)-N-(methyl-d3)nicotinamide] | 0.71 |
| [2H]C([2H])([2H])NC(=O)c1cnc(NC(=O)C2CC2)cc1Nc1cn(C)c2ccn(CC3CC3)c(=O)c12 [Example 106, 6-(Cyclopropanecarboxamido)-4-((5-(cyclopropylmethyl)-1-methyl-4-oxo-4,5-dihydro-1H-pyrrolo[3,2-c]pyridin-3-yl)amino)-N-(methyl-d3)nicotinamide] | 0.206 |
| [2H]C([2H])([2H])NC(=O)c1cnc(NC(=O)[C@@H]2C[C@H]2F)cc1Nc1cn(C)c2ccn(CC)c(=O)c12 [Example 103, 4-[(5-Ethyl-1-methyl-4-oxo-pyrrolo[3,2-c]pyridin-3-yl)amino]-6-[[(1S,2R)-2-fluorocyclopropanecarbonyl]amino]-N-(methyl-d3)pyridine-3-carboxamide] | 0.761 |
| [2H]C([2H])([2H])NC(=O)c1cnc(NC(=O)C2CC2)cc1Nc1csc2cnn(CCOC)c(=O)c12 [Example 179, 6-(Cyclopropanecarboxamido)-4-((5-(2-methoxyethyl)-4-oxo-4,5-dihydrothieno[2,3-d]pyridazin-3-yl)amino)-N-(methyl-d3)nicotinamide] | > 5 |
| [2H]C([2H])([2H])NC(=O)c1nnc2cc1Nc1cc(cc(-c3ncn(C)n3)c1OC)CCC(O)c1nc(ccc1F)N2 (centres unmarked) [Example 92, 18-Fluoro-16-hydroxy-10-methoxy-N-(methyl-d3)-11-(1-methyl-1H-1,2,4-triazol-3-yl)-2,4,5,8,21-pentaazatetracyclo[15.3.1.1^{3,7}.1^{9,13}]tricosa-1(20),3,5,7(23),9(22),10,12,17(21),18-nonaene-6-carboxamide] | 0.3 |
| [2H]C([2H])([2H])NC(=O)c1cnc(NC(=O)C2CC2)cc1Nc1cn(C)c2ccn(CC(=O)OCC)c(=O)c12 [Example 117, Ethyl 2-(3-((2-(cyclopropanecarboxamido)-5-((methyl-d3)carbamoyl)pyridin-4-yl)amino)-1-methyl-4-oxo-1,4-dihydro-5H-pyrrolo[3,2-c]pyridin-5-yl)acetate] | 0.249 |
| [2H]C([2H])([2H])NC(=O)c1cnc(NC(=O)C2CC2)cc1Nc1nn(C)c2ccn(CC3CC3(F)F)c(=O)c12 (centres unmarked) [Example 107, 6-(Cyclopropanecarboxamido)-4-((5-((2,2-difluorocyclopropyl)methyl)-1-methyl-4-oxo-4,5-dihydro-1H-pyrazolo[4,3-c]pyridin-3-yl)amino)-N-(methyl-d3)nicotinamide] | 2.1 |
| [2H]C([2H])([2H])NC(=O)c1nnc2cc1Nc1cc(cc(-c3ncn(C4CC4)n3)c1OC)COCc1cc(F)cc(n1)N2 [Example 88, 11-(1-Cyclopropyl-1H-1,2,4-triazol-3-yl)-19-fluoro-10-methoxy-N-(methyl-d3)-15-oxa-2,4,5,8,21-pentaazatetracyclo[15.3.1.1^{3,7}.1^{9,13}]tricosa-1(21),3,5,7(23),9(22),10,12,17,19-nonaene-6-carboxamide] | 0.0469 |
| CNC(=O)c1cnc(Nc2ccc(F)cn2)cc1Nc1cccc(C2(F)CC2)c1OC [Example 56, 4-((3-(1-Fluorocyclopropyl)-2-methoxyphenyl)amino)-6-((5-fluoropyridin-2-yl)amino)-N-methylnicotinamide] | 0.285 |
| [2H]C([2H])([2H])NC(=O)c1nnc(NC(=O)C2CC2)cc1Nc1csc2ccn(C)c(=O)c12 [Example 196, 6-(Cyclopropanecarboxamido)-N-(methyl-d3)-4-((5-methyl-4-oxo-4,5-dihydrothieno[3,2-c]pyridin-3-yl)amino)pyridazine-3-carboxamide] | 0.0457 |
